The source of these data is patent publication US20110158924A1, “PHOTO-PROTECTIVE DERMATOLOGICAL FORMULATIONS” (DermaPlus, Inc., priority 2007, published 2011).

Read-outs that look alike come from different tables or passages of the source.

One series addresses P5CR (Homo sapiens, UniProt Q96C36). Particulars: read-out: Km for P5CR activity; extracts of HEK 293 cells overexpressing P5CR, substrate P5C. Here is the method: (§1) P5CS activity was measured in a reaction mixture of 50 mM Tris-HCl (pH 7.0), 0-50 mM glutamate, […], 10 mM ATP, and 0.2 mM NADPH and by monitoring the oxidation of NADPH at 340 nm. P5CR activity in the cell lysate was also determined by monitoring the oxidation of NADPH at 340 nm as described in Merrill, M. J., Yeh, G. C., and Phang, J. M. (1989) J. Biol. Chem. 264, 9352-9358, which reference is incorporated herein by reference in its entirety. Background rates for each of the above assays were determined from assays using lysates of HEK 293 cells transfected with the pcDNA3.1 vector alone. Km values for each enzyme activity were estimated by varying the concentration of the substrates and non-linear regression analysis of the initial velocity vs substrate concentration.

Series [1] has as its system HEK 293 cells. Description: Cell survival of HEK 293 cells after H2O2 stress treatment (MTT assay). The following applies: for viability at 5000 µM: Homo sapiens, read-out: Cell Survival (%); for protection of cell survival against H2O2 exposure (in words): 0.5 mM H2O2, 3 h. Format: cell-based, human. Here is the method:
For stress treatments, HEK 293 cells were grown to about 80% confluence. […] For testing the protective ability of other amino acids, cells were treated for 3 h with 0.5 mM H2O2 in the absence and presence of each amino acid (5 mM). Cells overexpressing PRODH, P5CS, and P5CR were incubated with H2O2 (0.5 mM) for 3 h at 37° C. after 24 h of transfection. Mild oxidative stress treatment was performed by treating HEK 293 cells with 20 μM H2O2 for 0-24 h at 37° C. […] Percent cell survival was estimated by counting live and dead cells using the 3-(4,5-dimethylthiazol-2-yl)-2,5-diphenyltetrazolium bromide (MTT) assay according to the recommendations of the manufacturer (Promega).

The next series addresses P5CS (Homo sapiens, UniProt P54886). Particulars: read-out: Km for P5CS activity; extracts of HEK 293 cells overexpressing P5CS, substrate glutamate. Here is the method: as §1
Series [2] has as its system HEK 293 cells. The following applies: H2O2 1 mM for 3 and 6 h, 5 mM proline. Here is the method: The cell pellets were resuspended in 0.4 ml of 100 mM Tris-HCl (pH 8.5) containing 0.2% SDS, 0.2 mg/ml proteinase K and 5 mM EDTA. The cells were then incubated at 37° C. for 16 h. NaCl was next added to the cell suspension at a final concentration of 1.5 M and the nuclear debris was removed by centrifugation at room temperature. The nucleic acids in the supernatant were then precipitated using established protocols. DNA samples were analyzed by non-denaturing agarose gel electrophoresis (1.5%) and visualized by ethidium bromide staining.

The test system of series [3] is HEK 293 cells. Particulars: H2O2 1 mM, proline 5 mM; H2O2 alone 55%, no stress 6%.
Description: Intracellular ROS levels in HEK 293 cells were evaluated before and after H2O2 treatment by incubating PBS washed cells for 10 min with dichlorodihydrofluorescein diacetate (DCHF-DA) (20 μM) (Molecular Probes).
Quantitative ROS measurements were performed using flow cytometry. After oxidative stress treatment as described above, cells (5×10^5) were washed with PBS and incubated with DCHF-DA (0.1 mM) for 15 min in the dark at room temperature. Cells were then washed twice with PBS to remove excess DCHF-DA and resuspended in PBS containing 10 mM EDTA. The cells were then analyzed using FACScan flow cytometry (Becton-Dickinson, San Jose, Calif.). The mean fluorescence channel of each sample was calculated using FACS-equipped […] ® software and is reported as the percent fluorescence observed in the live cell population. In each assay, matching cells not treated with DCHF-DA served as a control.
Substrate in series [4]: O=C(O)[C@@H]1CCCN1
Description: cells, lysate or membranes named. The following applies: other: extracts of HEK 293 cells overexpressing PRODH, substrate proline; pH 7.0.

Where [5] appears, read: HEK293, amino acid supplement 5 mM, 0.5 mM H2O2 for 3 h at 37° C., MTT, no supplement 39, control without H2O2 97.
The mark [6] stands for this setting: HEK293, 3 h, amino acid supplement 5 mM, 0.5 mM H2O2 for 3 h at 37° C., MTT, no supplement 39, control without H2O2 97.

Chain of P5CS (P54886 1-793 isoform P54886-2): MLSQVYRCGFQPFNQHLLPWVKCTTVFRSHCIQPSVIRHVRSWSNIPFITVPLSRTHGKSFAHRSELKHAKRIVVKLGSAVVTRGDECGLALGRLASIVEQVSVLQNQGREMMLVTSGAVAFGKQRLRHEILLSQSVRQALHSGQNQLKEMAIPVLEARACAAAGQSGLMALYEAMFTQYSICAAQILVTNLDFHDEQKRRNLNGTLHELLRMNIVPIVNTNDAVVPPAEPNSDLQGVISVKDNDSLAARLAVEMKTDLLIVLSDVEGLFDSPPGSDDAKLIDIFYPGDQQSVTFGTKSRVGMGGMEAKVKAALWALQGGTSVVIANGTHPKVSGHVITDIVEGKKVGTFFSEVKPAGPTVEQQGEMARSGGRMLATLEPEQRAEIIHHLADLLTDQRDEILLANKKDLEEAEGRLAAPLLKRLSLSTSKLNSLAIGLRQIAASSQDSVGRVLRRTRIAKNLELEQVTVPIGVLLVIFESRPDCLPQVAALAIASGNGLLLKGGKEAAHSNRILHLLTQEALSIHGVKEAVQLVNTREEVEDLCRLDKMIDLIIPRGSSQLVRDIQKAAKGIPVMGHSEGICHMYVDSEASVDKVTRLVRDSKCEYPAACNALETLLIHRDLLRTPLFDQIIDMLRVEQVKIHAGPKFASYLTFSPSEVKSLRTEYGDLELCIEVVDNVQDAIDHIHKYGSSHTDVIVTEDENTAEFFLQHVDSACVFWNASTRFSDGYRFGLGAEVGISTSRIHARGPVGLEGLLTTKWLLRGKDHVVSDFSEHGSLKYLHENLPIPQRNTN
Chain of P5CR (Q96C36 whole entry): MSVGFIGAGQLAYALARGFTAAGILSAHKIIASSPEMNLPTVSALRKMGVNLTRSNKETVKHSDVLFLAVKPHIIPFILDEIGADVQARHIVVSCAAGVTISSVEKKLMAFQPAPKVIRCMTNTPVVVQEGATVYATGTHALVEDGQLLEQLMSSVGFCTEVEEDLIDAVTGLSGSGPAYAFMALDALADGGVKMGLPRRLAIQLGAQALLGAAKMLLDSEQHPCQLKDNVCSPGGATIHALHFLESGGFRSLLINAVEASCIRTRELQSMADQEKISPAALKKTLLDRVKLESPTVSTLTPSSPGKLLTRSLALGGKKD

For `O=C(O)C1CCC=N1` (stereo not drawn) [P5C], the Km at P5CR was determined as 15 mM.
With `C[C@H](N)C(=O)O` [alanine, reference compound], in the series on HEK 293 cells [1] (setting [5]), the viability at 5000 µM is 48%.
With `N=C(N)NCCC[C@H](N)C(=O)O` [arginine, reference compound], the viability at 5000 µM in the series on HEK 293 cells [1] (HEK293, 3 h) turned out to be 50%.
For `NC(=O)C[C@H](N)C(=O)O` [asparagine, reference compound], the viability at 5000 µM with HEK 293 cells [1] (setting [5]) worked out at 48%.
Still for that read-out and setting: the result for `N[C@@H](CC(=O)O)C(=O)O` [aspartate, reference compound] reads 35%.
Consider `N[C@@H](CS)C(=O)O` [cysteine], for which the viability at 5000 µM in the series with HEK 293 cells [1] (HEK293, 3 h) is 68%. For the same molecule, the “protection of cell survival against H2O2 exposure (in words)” value (shortened to “protection of cell survival”) in the series on HEK 293 cells [1] (amino acid supplement 5 mM) is reported as “increase cell survival to almost the same level as proline”.
On to `N[C@@H](CCC(=O)O)C(=O)O` [glutamate, reference compound], for which, on P5CS, the Km was ~20 mM. Also, the “Cell Survival (%)” value in the series with HEK 293 cells [1] (amino acid supplement 5 mM, 0.5 mM H2O2 for 3 h at 37° C., MTT, no supplement 39, control without H2O2 97) stood at 35%.
For the molecule `NC(=O)CC[C@H](N)C(=O)O` [glutamine, reference compound], in the series with HEK 293 cells [1] (setting [5]), the viability at 5000 µM worked out at 49%.
For `NCC(=O)O` [glycine, reference compound], the viability at 5000 µM in the series with HEK 293 cells [1] (setting [6]) amounted to 33%.
With `N[C@@H](Cc1c[nH]cn1)C(=O)O` [histidine], the viability at 5000 µM in the series on HEK 293 cells [1] (setting [5]) is 58%. Besides, the “protection of cell survival” value in the series on HEK 293 cells [1] (amino acid supplement 5 mM) is listed as “protection against H2O2 exposure”.
Consider `CC[C@H](C)[C@H](N)C(=O)O` [isoleucine, reference compound], for which, in the series on HEK 293 cells [1] (setting [5]), the viability at 5000 µM amounted to 42%.
The same measure, in the same setting: then `CC(C)C[C@H](N)C(=O)O` [leucine, reference compound], with 43%.
As to `NCCCC[C@H](N)C(=O)O` [lysine], the viability at 5000 µM with HEK 293 cells [1] (HEK293, 3 h) worked out at 54%.
In the case of `CSCC[C@H](N)C(=O)O` [methionine], the viability at 5000 µM with HEK 293 cells [1] (setting [6]) stood at 57%. Also, the “protection of cell survival” value in the series with HEK 293 cells [1] (amino acid supplement 5 mM) was “protection against H2O2 exposure”.
As to `N[C@@H](Cc1ccccc1)C(=O)O` [phenylalanine], the viability at 5000 µM with HEK 293 cells [1] (setting [5]) turned out to be 51%.
As for `O=C(O)[C@@H]1CCCN1` [proline], the “DNA laddering induced by H2O2” value in the series with HEK 293 cells [2] is “lack of DNA laddering”. In the series on HEK 293 cells [3], the “cell fluorescence levels (fluorescent positives, indicative of ROS)” value is listed as 10%. Besides, the viability at 5000 µM in the series with HEK 293 cells [1] (setting [6]) was ~77%.
On to `N[C@@H](CO)C(=O)O` [serine], for which the viability at 5000 µM in the series with HEK 293 cells [1] (setting [5]) was 58%.
For `C[C@@H](O)[C@H](N)C(=O)O` [threonine], the viability at 5000 µM in the series with HEK 293 cells [1] (setting [5]) came out at 59%. The “protection of cell survival” value in the series with HEK 293 cells [1] (amino acid supplement 5 mM) is on record as “protection against H2O2 exposure”.
Consider `N[C@@H](Cc1c[nH]c2ccccc12)C(=O)O` [tryptophan], for which, in the series on HEK 293 cells [1] (HEK293, 3 h), the viability at 5000 µM is 66%. Further, in the series on HEK 293 cells [1] (amino acid supplement 5 mM), the “protection of cell survival” value is recorded as “increase cell survival to almost the same level as proline”.
On to `N[C@@H](Cc1ccc(O)cc1)C(=O)O` [tyrosine, reference compound], for which, in the series on HEK 293 cells [1] (setting [5]), the viability at 5000 µM was 41%.
For the molecule `CC(C)[C@H](N)C(=O)O` [valine, reference compound], the viability at 5000 µM in the series on HEK 293 cells [1] (setting [5]) is 44%.

B1: PRODH (Homo sapiens) (protein)
chain: MALRRALPALRPCIPRFVPLSTAPASREQPAAGPAAVPGGGSATAVRPPVPAVDFGNAQEAYRSRRTWELARSLLVLRLCAWPALLARHEQLLYVSRKLLGQRLFNKLMKMTFYGHFVAGEDQESIQPLLRHYRAFGVSAILDYGVEEDLSPEEAEHKEMESCTSAAERDGSGTNKRDKQYQAHWAFGDRRNGVISARTYFYANEAKCDSHMETFLRCIEASGRVSDDGFIAIKLTALGRPQFLLQFSEVLAKWRCFFHQMAVEQGQAGLAAMDTKLEVAVLQESVAKLGIASRAEIEDWFTAETLGVSGTMDLLDWSSLIDSRTKLSKHLVVPNAQTGQLEPLLSRFTEEEELQMTRMLQRMDVLAKKATEMGVRLMVDAEQTYFQPAISRLTLEMQRKFNVEKPLIFNTYQCYLKDAYDNVTLDVELARREGWCFGAKLVRGAYLAQERARAAEIGYEDPINPTYEATNAMYHRCLDYVLEELKHNAKAKVMVASHNEDTVRFALRRMEELGLHPADHRVYFGQLLGMCDQISFPLGQAGYPVYKYVPYGPVMEVLPYLSRRALENSSLMKGTHRERQLLWLELLRRLRTGNLFHRPA
Regarding B1, in series [4], the Km came to 14 ± 0.5 mM.
